# Test results taken from PMC11277489, “Novel Piperazine Derivatives of Vindoline as Anticancer Agents” (International Journal of Molecular Sciences, 2024).
# Like-named read-outs stand apart in the source and are kept apart here.
# How the values were obtained:
# SN12C = assay: NCI60 one-dose screen (10 μM), Renal Cancer; type: cell-based; details: Homo sapiens, read-out: Growth percent rate
# HS 578T = assay: NCI60 one-dose screen (10 μM), Breast Cancer; type: cell-based; details: Homo sapiens, read-out: Growth percent rate
# MDA-MB-231/ATCC = assay: NCI60 one-dose screen (10 μM), Breast Cancer; type: cell-based, human; details: Homo sapiens
# UO-31 = assay: NCI60 one-dose screen (10 μM), Renal Cancer; type: cell-based; details: Homo sapiens
# OVCAR-5 = assay: NCI60 one-dose screen (10 μM), Ovarian Cancer; type: cell-based; details: Homo sapiens
# NCI-H522 = assay: NCI60 one-dose screen (10 μM), Non-small Cell Lung Cancer; type: cell-based; details: Homo sapiens
# OVCAR-3 = assay: NCI60 one-dose screen (10 μM), Ovarian Cancer; type: cell-based; details: Homo sapiens
# HCC-2998 = assay: NCI60 one-dose screen (10 μM), Colon Cancer; type: cell-based; details: Homo sapiens
# MDA-MB-468 = assay: NCI60 one-dose screen (10 μM), Breast Cancer; type: cell-based; details: Homo sapiens
# EKVX = assay: NCI60 one-dose screen (10 μM), Non-small Cell Lung Cancer; type: cell-based; details: Homo sapiens, read-out: Growth percent rate
# BT-549 = assay: NCI60 one-dose screen (10 μM), Breast Cancer; type: cell-based; details: Homo sapiens
# NCI-H226 = assay: NCI60 one-dose screen (10 μM), Non-small Cell Lung Cancer; type: cell-based; details: Homo sapiens
# PC-3 = assay: NCI60 one-dose screen (10 μM), Prostate Cancer; type: cell-based; details: Homo sapiens
# NCI/ADR-RES = assay: NCI60 one-dose screen (10 μM), Ovarian Cancer; type: cell-based; details: Homo sapiens, read-out: Growth percent rate
# HCT-116 = assay: NCI60 one-dose screen (10 μM), Colon Cancer; type: cell-based; details: Homo sapiens
# HOP-92 = assay: NCI60 one-dose screen (10 μM), Non-small Cell Lung Cancer; type: cell-based; details: Homo sapiens
# SK-OV-3 = assay: NCI60 one-dose screen (10 μM), Ovarian Cancer; type: cell-based; details: Homo sapiens
# SR = assay: NCI60 one-dose screen (10 μM), Leukemia; type: cell-based; details: Homo sapiens, read-out: Growth percent rate
# T-47D = assay: NCI60 one-dose screen (10 μM), Breast Cancer; type: cell-based; details: Homo sapiens, T47D, read-out: Growth percent rate
# UACC-62 = assay: NCI60 one-dose screen (10 μM), Melanoma; type: cell-based; details: Homo sapiens
# [1] = MDA-MB-231, read-out: Growth percent rate
# [2] = UO-31, read-out: Growth percent rate
# [3] = OVCAR-5, read-out: Growth percent rate
# [4] = NCI-H522, read-out: Growth percent rate
# [5] = OVCAR-3, read-out: Growth percent rate
# [6] = HCC 2998, read-out: Growth percent rate
# [7] = MDA-MB-468, read-out: Growth percent rate
# [8] = BT-549, read-out: Growth percent rate
# [9] = NCI-H226, read-out: Growth percent rate
# [10] = PC-3, read-out: Growth percent rate
# [11] = HCT-116, read-out: Growth percent rate
# [12] = HOP-92, read-out: Growth percent rate
# [13] = SK-OV-3, read-out: Growth percent rate
# [14] = 10 μM, MDA-MB-231/ATCC, Breast Cancer, read-out: Growth percent rate
# [15] = 10 μM, UO-31, Renal Cancer, read-out: Growth percent rate
# [16] = 10 μM, OVCAR-5, Ovarian Cancer, read-out: Growth percent rate
# [17] = 10 μM, NCI-H522, Non-small Cell Lung Cancer, read-out: Growth percent rate
# [18] = 10 μM, OVCAR-3, Ovarian Cancer, read-out: Growth percent rate
# [19] = 10 μM, HCC-2998, Colon Cancer, read-out: Growth percent rate
# [20] = 10 μM, Non-small Cell Lung Cancer
# [21] = 10 μM, BT-549, Breast Cancer, read-out: Growth percent rate
# [22] = 10 μM, NCI-H226, Non-small Cell Lung Cancer, read-out: Growth percent rate
# [23] = 10 μM, PC-3, Prostate Cancer, read-out: Growth percent rate
# [24] = 10 μM, UACC-62, Melanoma, read-out: Growth percent rate
# [25] = 10 μM, HCT-116, Colon Cancer, read-out: Growth percent rate
# [26] = 10 μM, SK-OV-3, Ovarian Cancer, read-out: Growth percent rate
# [27] = UACC-62, read-out: Growth percent rate
# [28] = 10 μM, MDA-MB-468, Breast Cancer, read-out: Growth percent rate
# [29] = 10 μM, HOP-92, Non-small Cell Lung Cancer, read-out: Growth percent rate
Compound,activity at 10 µM (SN12C) [%],activity at 10 µM (HS 578T; Hs-578T) [%],activity at 10 µM (MDA-MB-231/ATCC; [1]) [%],activity at 10 µM (UO-31; [2]) [%],activity at 10 µM (OVCAR-5; [3]) [%],activity at 10 µM (NCI-H522; [4]) [%],"activity at 10 µM (SN12C; 10 μM, Renal Cancer) [%]","activity at 10 µM (HS 578T; 10 μM, HS 578T, Breast Cancer) [%]",activity at 10 µM (NCI-H522; [17]) [%],activity at 10 µM (OVCAR-3; [18]) [%],activity at 10 µM (HCC-2998; [19]) [%],activity at 10 µM (EKVX; [20]) [%],activity at 10 µM (BT-549; [21]) [%],activity at 10 µM (NCI-H226; [22]) [%],activity at 10 µM (PC-3; [23]) [%],"activity at 10 µM (NCI/ADR-RES; 10 μM, Ovarian Cancer) [%]",activity at 10 µM (UACC-62; [24]) [%],activity at 10 µM (HCT-116; [25]) [%],activity at 10 µM (SK-OV-3; [26]) [%],activity at 10 µM (MDA-MB-468; [28]) [%],also measured
"CCC12C=CCN3CC[C@@]4(c5ccc(OC)cc5N(C)[C@H]4[C@@](O)(C(=O)OC)[C@@H]1OC(C)=O)[C@@H]32 (stereo partly shown) [Compound 1, vindoline]",100,98,113,84.6,107,99.7,,,,,,,,,,,,,,,activity at 10 µM (OVCAR-3; [5]): 127%; activity at 10 µM (HCC-2998; [6]): 101%; activity at 10 µM (MDA-MB-468; [7]): 134%; activity at 10 µM (EKVX): 92%; activity at 10 µM (BT-549; [8]): 106%; activity at 10 µM (NCI-H226; [9]): 92.3%; activity at 10 µM (PC-3; [10]): 98.6%; activity at 10 µM (NCI/ADR-RES): 107%; activity at 10 µM (HCT-116; [11]): 116%; activity at 10 µM (HOP-92; [12]): 109%; activity at 10 µM (SK-OV-3; [13]): 102%
CCC12C=CCN3CCC4(c5cc(NC(=O)CN6CCN(C)CC6)c(OC)cc5N(C)C4C(O)(C(=O)OC)C1OC(C)=O)C32 (stereo not shown) [Compound 16],,,,,,,109,111,90.2,138,106,94.8,113,101,93.1,104,98.9,101,113,,"activity at 10 µM (MDA-MB-231/ATCC; [14]): 102%; activity at 10 µM (UO-31; [15]): 89.4%; activity at 10 µM (OVCAR-5; [16]): 102%; activity at 10 µM (SR; 10 μM, Leukemia): 93.8%; activity at 10 µM (T-47D; 10 μM, T-47D, Breast Cancer): 104%"
"CCC12C=CCN3CCC4(c5ccc(OC)cc5N(C)C4C(O)(C(=O)OC)C1O)C32 (stereo not shown) [Compound 13, 17-desacetylvindoline]",99,100,101,87.6,91.2,94,,,,,,,,,,,,,,,activity at 10 µM (OVCAR-3; [5]): 112%; activity at 10 µM (HCC-2998; [6]): 96.8%; activity at 10 µM (MDA-MB-468; [7]): 92.2%; activity at 10 µM (EKVX): 98.9%; activity at 10 µM (BT-549; [8]): 101%; activity at 10 µM (NCI-H226; [9]): 88.5%; activity at 10 µM (PC-3; [10]): 96.5%; activity at 10 µM (NCI/ADR-RES): 99.4%; activity at 10 µM (T-47D): 108%; activity at 10 µM (UACC-62; [27]): 90.7%; activity at 10 µM (HCT-116; [11]): 99.2%; activity at 10 µM (HOP-92; [12]): 88.6%
CC[C@]12C=CCN3CC[C@@]4(c5ccc(OC)cc5N(C)[C@H]4[C@@](O)(C(=O)OC)[C@@H]1OC(=O)CCCN1CCN(C(=O)c4ccco4)CC1)[C@@H]32 [Compound 26],,,,,,,103,96.1,91.6,121,106,87.8,96.8,94.9,80.5,91.8,86.4,104,108,,"activity at 10 µM (MDA-MB-231/ATCC; [14]): 102%; activity at 10 µM (UO-31; [15]): 80.6%; activity at 10 µM (OVCAR-5; [16]): 112%; activity at 10 µM (SR; 10 μM, Leukemia): 75.4%; activity at 10 µM (T-47D; 10 μM, T-47D, Breast Cancer): 82.2%"
"CCC12C=CCN3CCC4(c5ccc(OC)cc5N(C)C4C(O)(C(=O)OC)C1OC(=O)CCC(=O)O)C32 (stereo not shown) [Compound 15, 17-(O-3-carboxypropanoyl)vindoline]",,,,,,,92.9,69.3,84.2,74.9,71,87.4,80.5,66.6,87.7,94.6,92.4,98.6,92.3,98.7,activity at 10 µM (HOP-92; [29]): 98.8%
CCC12C=CCN3CCC4(c5cc(NC(=O)CN6CCN(Cc7ccc(F)cc7)CC6)c(OC)cc5N(C)C4C(O)(C(=O)OC)C1OC(C)=O)C32 (stereo not shown) [Compound 19],103,110,102,89.1,111,93.5,,,,,,,,,,,,,,,activity at 10 µM (OVCAR-3; [5]): 119%; activity at 10 µM (HCC-2998; [6]): 102%; activity at 10 µM (EKVX): 88.8%; activity at 10 µM (SR): 75.3%; activity at 10 µM (BT-549; [8]): 101%; activity at 10 µM (NCI-H226; [9]): 97.8%; activity at 10 µM (PC-3; [10]): 73.6%; activity at 10 µM (NCI/ADR-RES): 97.3%; activity at 10 µM (T-47D): 93%; activity at 10 µM (UACC-62; [27]): 96.9%; activity at 10 µM (HCT-116; [11]): 101%; activity at 10 µM (SK-OV-3; [13]): 108%
"CCC12C=CCN3CCC4(c5cc(NC(=O)CCl)c(OC)cc5N(C)C4C(O)(C(=O)OC)C1OC(C)=O)C32 (stereo not shown) [Compound 12, 10-chloroacetamidovindoline]",,,,,,,11,-16.8,8.28,-14.7,24.2,46.6,14.7,43.5,24.5,79.4,22.1,41.2,33.9,-40.8,activity at 10 µM (HOP-92; [29]): 34.3%
CCC12C=CCN3CCC4(c5ccc(OC)cc5N(C)C4C(O)(C(=O)OC)C1OC(=O)CCCN1CCN(C)CC1)C32 (stereo not shown) [Compound 3],,,,,,,89.1,78.6,45.9,78.1,92.4,96.5,,,92.9,94.7,83.2,112,93.3,70.5,"activity at 10 µM (MDA-MB-231/ATCC; [14]): 80.4%; activity at 10 µM (UO-31; [15]): 75.8%; activity at 10 µM (OVCAR-5; [16]): 96.4%; activity at 10 µM (T-47D; 10 μM, T-47D, Breast Cancer): 90.9%; activity at 10 µM (HOP-92; [29]): 80.9%"
CC[C@]12C=CCN3CC[C@@]4(c5ccc(OC)cc5N(C)[C@H]4[C@@](O)(C(=O)OC)[C@@H]1OC(=O)CCC(=O)N1CCN(C)CC1)[C@@H]32 [Compound 27],,,,,,,86.7,70.8,84.5,89.2,86.5,90.7,88.6,80.4,101,107,112,103,106,124,activity at 10 µM (HOP-92; [29]): 105%
CCC12C=CCN3CCC4(c5cc(NC(=O)CN6CCN(Cc7ccc(C(F)(F)F)cc7)CC6)c(OC)cc5N(C)C4C(O)(C(=O)OC)C1OC(C)=O)C32 (stereo not shown) [Compound 18],59.3,62.5,43.7,50,108,55.2,,,,,,,,,,,,,,,activity at 10 µM (OVCAR-3; [5]): 84.5%; activity at 10 µM (HCC-2998; [6]): 79.1%; activity at 10 µM (MDA-MB-468; [7]): 39.8%; activity at 10 µM (EKVX): 61.6%; activity at 10 µM (SR): 48.2%; activity at 10 µM (BT-549; [8]): 47%; activity at 10 µM (NCI-H226; [9]): 67.7%; activity at 10 µM (NCI/ADR-RES): 61.9%; activity at 10 µM (T-47D): 51.4%; activity at 10 µM (UACC-62; [27]): 74.4%; activity at 10 µM (HCT-116; [11]): 46.4%; activity at 10 µM (SK-OV-3; [13]): 87%
CCC12C=CCN3CCC4(c5cc(NC(=O)CN6CCN(C(=O)c7ccco7)CC6)c(OC)cc5N(C)C4C(O)(C(=O)OC)C1OC(C)=O)C32 (stereo not shown) [Compound 21],,,,,,,107,121,98.2,118,126,99.2,117,111,,112,103,108,113,120,"activity at 10 µM (MDA-MB-231/ATCC; [14]): 98.8%; activity at 10 µM (UO-31; [15]): 89.3%; activity at 10 µM (OVCAR-5; [16]): 121%; activity at 10 µM (SR; 10 μM, Leukemia): 97.2%; activity at 10 µM (T-47D; 10 μM, T-47D, Breast Cancer): 111%"
